Data published in PMC9403976, “Elucidating the path to Plasmodium prolyl-tRNA synthetase inhibitors that overcome halofuginone resistance” (Nature Communications, 2022).
Values joined by “and” are separate entries in the source; they are usually repeats but may differ in a detail not shown here. Equal values may be shown once. Read-outs that look alike come from different tables or passages of the source.

What was measured:
[1] = biological target: HsProRS (Homo sapiens, UniProt P07814); test: TR-FRET ligand displacement assay with tracer MAT379 (CoraFluor-1-Halo and anti-His6 antibody formats); format: binding; design: made in house; host or cells: E. coli SoluBL-21; conditions: for TR-FRET dose-response, normalized signal (SI Fig 11): individual replicates
Chain of HsProRS (P07814 996-1512): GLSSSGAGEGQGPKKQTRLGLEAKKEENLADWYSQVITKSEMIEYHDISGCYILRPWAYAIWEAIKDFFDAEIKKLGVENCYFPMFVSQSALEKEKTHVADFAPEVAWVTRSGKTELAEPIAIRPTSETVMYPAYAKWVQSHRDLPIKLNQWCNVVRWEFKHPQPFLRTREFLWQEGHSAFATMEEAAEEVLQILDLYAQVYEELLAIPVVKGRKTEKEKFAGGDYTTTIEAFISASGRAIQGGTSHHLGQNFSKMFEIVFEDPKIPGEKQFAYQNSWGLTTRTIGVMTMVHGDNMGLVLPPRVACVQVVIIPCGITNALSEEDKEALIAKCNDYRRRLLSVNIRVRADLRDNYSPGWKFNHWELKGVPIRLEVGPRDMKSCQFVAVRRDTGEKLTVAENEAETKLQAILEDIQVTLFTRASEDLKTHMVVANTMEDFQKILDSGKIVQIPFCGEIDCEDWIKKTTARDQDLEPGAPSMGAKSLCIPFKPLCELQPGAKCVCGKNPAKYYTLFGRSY

[2] = tested on: HFGR-I P. falciparum (elevated proline homeostasis and PfcProRS^L482H); test: P. falciparum ABS growth assay, SYBR Green, 72 h, HFGR-I parasites; format: cell-based, Plasmodium falciparum; conditions: HFGR-I, single replicates
Procedure, shortened: (§1)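 SYBR Green 1 fluorescence after 72 h quantified growth of erythrocytic-stage Dd2 lines seeded at 1% parasitemia and 1% hematocrit. Compounds were tested in triplicate dose-response format in RPMI with 0.5% Albumax, referenced to 10 μM dihydroartemisinin and untreated wells.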

[3] = tested on: halofuginone-induced P. falciparum (elevated proline homeostasis); test: P. falciparum ABS growth assay, SYBR Green, 72 h, halofuginone-induced parasites; format: cell-based, Plasmodium falciparum; conditions: for parasite growth, dose-response point: Halofuginone-Induced (HFG-Induced), single replicates
Procedure, shortened: as §1

[4] = biological target: T1, PfcProRS (Plasmodium falciparum, UniProt Q8I5R7); format: binding; conditions: for dose-response signal (normalized), SI Fig 8: single replicates
T1 construct: made in house; host or cells: E. coli SoluBL-21
T1 sequence (Q8I5R7 249-746): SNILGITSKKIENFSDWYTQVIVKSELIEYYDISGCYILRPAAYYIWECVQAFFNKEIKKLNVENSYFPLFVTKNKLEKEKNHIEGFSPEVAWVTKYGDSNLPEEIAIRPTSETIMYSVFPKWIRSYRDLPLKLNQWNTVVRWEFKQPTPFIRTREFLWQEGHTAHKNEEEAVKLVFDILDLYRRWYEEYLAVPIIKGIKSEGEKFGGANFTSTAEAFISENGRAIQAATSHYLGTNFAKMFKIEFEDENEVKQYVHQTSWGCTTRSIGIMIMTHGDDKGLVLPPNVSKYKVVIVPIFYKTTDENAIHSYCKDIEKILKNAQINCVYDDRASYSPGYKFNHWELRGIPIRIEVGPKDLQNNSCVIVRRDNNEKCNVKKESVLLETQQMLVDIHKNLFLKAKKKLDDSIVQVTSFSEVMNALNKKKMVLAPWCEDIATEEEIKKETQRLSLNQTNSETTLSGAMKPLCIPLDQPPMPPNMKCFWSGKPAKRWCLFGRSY

[5] = tested on: P. falciparum Dd2-2D4; test: P. falciparum asexual blood stage (ABS) growth assay, SYBR Green, 72 h, wild-type parasites; format: cell-based, Plasmodium falciparum; conditions: for ABS growth dose-response, normalized signal (Replicates 1-3) / parasite growth, dose-response point: Dd2-2D4; for parasite growth, dose-response point: single replicates

## CC1(C(=O)Nc2nccnc2C(=O)NC2Cc3ccccc3C2)CCCCC1 [compound 4]
[1]; HsProRS (KD [nM]) −, absence of substrates, 250 nM MAT379
  Kd: 221 nM
[1]; HsProRS - best Kd, SI Fig 16a, values on -log scale
  Kd: 2.55 nM
[1]; Log[inhibitor] (M) -5.000
  normalized TR-FRET ligand displacement signal, dose-response replicates (SI Fig 6): 4.53E-02 and 6.57E-02 and 9.85E-02
  TR-FRET dose-response, normalized signal (SI Fig 11): 6.99E-03 and -1.87E-02 and 8.97E-03
[1]; Log[inhibitor] (M) -5.301
  normalized TR-FRET ligand displacement signal, dose-response replicates (SI Fig 6): 8.38E-02 and 1.09E-01 and 1.45E-01
  TR-FRET dose-response, normalized signal (SI Fig 11): 5.00E-02 and 2.79E-02 and 4.24E-02
[1]; Log[inhibitor] (M) -5.601
  normalized TR-FRET ligand displacement signal, dose-response replicates (SI Fig 6): 2.80E-01 and 1.33E-01 and 2.62E-01
  TR-FRET dose-response, normalized signal (SI Fig 11): 1.01E-01 and 8.93E-02 and 1.03E-01
[1]; Log[inhibitor] (M) -5.904
  normalized TR-FRET ligand displacement signal, dose-response replicates (SI Fig 6): 4.58E-01 and 3.89E-01 and 4.73E-01
  TR-FRET dose-response, normalized signal (SI Fig 11): 1.64E-01 and 2.16E-01 and 1.95E-01
[1]; Log[inhibitor] (M) -6.208
  normalized TR-FRET ligand displacement signal, dose-response replicates (SI Fig 6): 6.24E-01 and 6.52E-01 and 5.78E-01
  TR-FRET dose-response, normalized signal (SI Fig 11): 2.83E-01 and 3.32E-01 and 2.85E-01
[1]; Log[inhibitor] (M) -6.509
  normalized TR-FRET ligand displacement signal, dose-response replicates (SI Fig 6): 8.00E-01 and 8.38E-01 and 8.01E-01
  TR-FRET dose-response, normalized signal (SI Fig 11): 4.57E-01 and 4.64E-01 and 4.80E-01
[1]; Log[inhibitor] (M) -6.796
  normalized TR-FRET ligand displacement signal, dose-response replicates (SI Fig 6): 9.06E-01 and 8.75E-01 and 9.05E-01
  TR-FRET dose-response, normalized signal (SI Fig 11): 6.22E-01 and 6.48E-01 and 6.15E-01
[1]; Log[inhibitor] (M) -7.108
  normalized TR-FRET ligand displacement signal, dose-response replicates (SI Fig 6): 9.19E-01 and 1.02E+00 and 8.47E-01
  TR-FRET dose-response, normalized signal (SI Fig 11): 7.25E-01 and 7.35E-01 and 7.08E-01
[1]; Log[inhibitor] (M) -7.409
  normalized TR-FRET ligand displacement signal, dose-response replicates (SI Fig 6): 8.93E-01 and 1.05E+00 and 9.99E-01
  TR-FRET dose-response, normalized signal (SI Fig 11): 8.57E-01 and 8.69E-01 and 8.79E-01
[1]; Log[inhibitor] (M) -7.710
  normalized TR-FRET ligand displacement signal, dose-response replicates (SI Fig 6): 9.69E-01 (2×) and 9.96E-01
  TR-FRET dose-response, normalized signal (SI Fig 11): 9.21E-01 and 9.18E-01 and 9.07E-01
[1]; Log[inhibitor] (M) -8.000
  normalized TR-FRET ligand displacement signal, dose-response replicates (SI Fig 6): 1.02E+00 and 9.51E-01 and 1.08E+00
  TR-FRET dose-response, normalized signal (SI Fig 11): 9.42E-01 and 9.60E-01 and 9.15E-01
[1]; Log[inhibitor] (M) -8.301
  normalized TR-FRET ligand displacement signal, dose-response replicates (SI Fig 6): 8.99E-01 and 1.00E+00 and 9.75E-01
  TR-FRET dose-response, normalized signal (SI Fig 11): 9.32E-01 and 9.20E-01 and 9.46E-01
[1]; Log[inhibitor] (M) -8.602
  normalized TR-FRET ligand displacement signal, dose-response replicates (SI Fig 6): 9.54E-01 and 1.01E+00 and 9.27E-01
  TR-FRET dose-response, normalized signal (SI Fig 11): 9.70E-01 and 9.45E-01 and 9.16E-01
[1]; Log[inhibitor] (M) -9.000
  normalized TR-FRET ligand displacement signal, dose-response replicates (SI Fig 6): 9.66E-01 and 9.16E-01 and 8.85E-01
  TR-FRET dose-response, normalized signal (SI Fig 11): 9.54E-01 and 9.83E-01 and 9.88E-01
[1]; Log[inhibitor] (M) -9.301
  normalized TR-FRET ligand displacement signal, dose-response replicates (SI Fig 6): 1.02E+00 (2×) and 1.01E+00
  TR-FRET dose-response, normalized signal (SI Fig 11): 9.40E-01 and 9.47E-01 and 9.44E-01
[2]; Log[inhibitor] (M) -5
  parasite growth, dose-response point: 6 and 7 (2×)
[2]; Log[inhibitor] (M) -5.408
  parasite growth, dose-response point: 7 (2×) and 6
[2]; Log[inhibitor] (M) -5.816
  parasite growth, dose-response point: 6 (2×) and 7
[2]; Log[inhibitor] (M) -6.222
  parasite growth, dose-response point: 10 (2×) and 9
[2]; Log[inhibitor] (M) -6.638
  parasite growth, dose-response point: 75 and 76 and 81
[2]; Log[inhibitor] (M) -7.046
  parasite growth, dose-response point: 99 and 105 and 110
[2]; Log[inhibitor] (M) -7.45
  parasite growth, dose-response point: 87 and 99 and 100
[2]; Log[inhibitor] (M) -7.854
  parasite growth, dose-response point: 99 and 98 and 103
[2]; Log[inhibitor] (M) -8.26
  parasite growth, dose-response point: 100 and 101 and 104
[2]; Log[inhibitor] (M) -8.699
  parasite growth, dose-response point: 98 and 99 and 104
[2]; Log[inhibitor] (M) -9
  parasite growth, dose-response point: 101 and 97 and 100
[2]; Log[inhibitor] (M) -9.488
  parasite growth, dose-response point: 89 and 96 and 93
[3]; Log[inhibitor] (M) -5
  parasite growth, dose-response point: 1
[3]; Log[inhibitor] (M) -5.408
  parasite growth, dose-response point: 1
  dose-response value, Replicates 1-3 (SI Fig 2e): 1
[3]; Log[inhibitor] (M) -5.816
  parasite growth, dose-response point: 0 (2×) and 1
[3]; Log[inhibitor] (M) -6.222
  parasite growth, dose-response point: 16 and 18 and 17
[3]; Log[inhibitor] (M) -6.638
  parasite growth, dose-response point: 99 (2×) and 106
[3]; Log[inhibitor] (M) -7.046
  parasite growth, dose-response point: 103 (2×) and 109
[3]; Log[inhibitor] (M) -7.45
  parasite growth, dose-response point: 100 and 97
[3]; Log[inhibitor] (M) -7.854
  parasite growth, dose-response point: 100 (2×) and 97
[3]; Log[inhibitor] (M) -8.26
  parasite growth, dose-response point: 101 and 95 and 97
[3]; Log[inhibitor] (M) -8.699
  parasite growth, dose-response point: 99 and 98 (2×)
[3]; Log[inhibitor] (M) -9
  parasite growth, dose-response point: 96 (2×) and 97
[3]; Log[inhibitor] (M) -9.488
  parasite growth, dose-response point: 98 and 95 and 102
[3]; Log[inhibitor] (M) -5.000
  dose-response value, Replicates 1-3 (SI Fig 2e): 1
[4]; Log[inhibitor] (M) -5.000
  dose-response signal (normalized), SI Fig 8: 4.05E-02 and -1.19E-01 and -1.91E-02
[4]; Log[inhibitor] (M) -5.301
  dose-response signal (normalized), SI Fig 8: -7.53E-02 and -2.32E-02 and 3.73E-02
[4]; Log[inhibitor] (M) -5.601
  dose-response signal (normalized), SI Fig 8: -7.78E-02 and -2.66E-03 and -2.25E-02
[4]; Log[inhibitor] (M) -5.904
  dose-response signal (normalized), SI Fig 8: 1.67E-02 and 2.48E-02 and 1.76E-02
[4]; Log[inhibitor] (M) -6.208
  dose-response signal (normalized), SI Fig 8: 8.20E-02 and 4.30E-02 and 6.02E-02
[4]; Log[inhibitor] (M) -6.509
  dose-response signal (normalized), SI Fig 8: 7.49E-03 and -2.38E-02 and -1.11E-02
[4]; Log[inhibitor] (M) -6.796
  dose-response signal (normalized), SI Fig 8: 4.86E-02 and 3.80E-02 and -1.10E-02
[4]; Log[inhibitor] (M) -7.108
  dose-response signal (normalized), SI Fig 8: 4.17E-02 and 7.57E-02 and 3.79E-02
[4]; Log[inhibitor] (M) -7.409
  dose-response signal (normalized), SI Fig 8: 2.11E-01 and 1.42E-01 and 1.90E-01
[4]; Log[inhibitor] (M) -7.710
  dose-response signal (normalized), SI Fig 8: 4.47E-01 and 2.93E-01 and 4.00E-01
[4]; Log[inhibitor] (M) -8.000
  dose-response signal (normalized), SI Fig 8: 7.09E-01 and 7.29E-01 and 6.69E-01
[4]; Log[inhibitor] (M) -8.301
  dose-response signal (normalized), SI Fig 8: 8.70E-01 and 9.23E-01 and 9.80E-01
[4]; Log[inhibitor] (M) -8.602
  dose-response signal (normalized), SI Fig 8: 1.09E+00 and 9.73E-01 and 1.05E+00
[4]; Log[inhibitor] (M) -9.000
  dose-response signal (normalized), SI Fig 8: 9.29E-01 and 9.06E-01 and 9.66E-01
[4]; Log[inhibitor] (M) -9.301
  dose-response signal (normalized), SI Fig 8: 8.49E-01 and 1.04E+00 and 9.72E-01
[4]; SI Fig 16a, values on -log scale
  PfcProRS -- best Kd: 8.466
[5]; Log[inhibitor] (M) -5.000
  ABS growth dose-response, normalized signal (Replicates 1-3): 0
  parasite growth, dose-response point: 0
[5]; Log[inhibitor] (M) -5.301
  ABS growth dose-response, normalized signal (Replicates 1-3): 0
  parasite growth, dose-response point: 0
[5]; Log[inhibitor] (M) -5.602
  ABS growth dose-response, normalized signal (Replicates 1-3): 0
  parasite growth, dose-response point: 0
[5]; Log[inhibitor] (M) -6.505
  ABS growth dose-response, normalized signal (Replicates 1-3): 8
  parasite growth, dose-response point: 8
[5]; Plasmodium falciparum, DD2, SI Fig 16b, values on -log scale, read-out: ABS - Dd2-2D4 (converted)
  EC50: 180 nM
